The record followed here is patent US5948791A, “Quinoline derivatives for treating malaria” (Hoffmann-La Roche Inc., priority 1995, dated 1999).

Each structure is given as a SMILES string. ≈ marks a conversion by molar mass, not a printed value. Like-named read-outs stand apart in the source and are kept apart here.

The test system of test [1] is Plasmodium berghei. Briefly: animal or person. It is filed as in vivo, Plasmodium berghei (strain ANKA) in mice. To be noted: Plasmodium berghei. As to the method: Test method for the determination of the activity against Plasmodium berghei in vivo
The preparations are tested on mice infected with malaria pathogens (Plasmodium berghei). Male albino mice (IBM:MORO(SPF), FUELLINSDORF) weighing about 25 g are used as the test animals. They are kept in climatized rooms at 21-22° C. in groups of 5 animals per cage. They receive ad libitum a diet feed with a low PABA content (NAFAG FUTTER " No. 9009 PAB-45, PABA content 45 mg/kg) and drinking water. On the first day of the test (D0) the test animals are infected with Plasmodium berghei (strain ANKA). For this there is used heparinized blood of a donor mouse with about 30% parasitemia, which is diluted with physiological saline such that it contains 10^8 parasitized erythrocytes per ml. 0.2 ml of this suspension is injected intravenously (i.v.) into the mice to be treated and into the control mice.
The substances to be tested are dissolved or suspended in distilled water or in a mixture of 7% Tween 80, 3% alcohol (96%) and water. Usually, 0.25 ml of this solution or suspension is administered once subcutaneously and perorally to groups of 5 test animals. Treatment is effected 24 hours after the infection. 10 control animals are treated in the same manner with solvent or suspension medium per test.
All substances are tested in a first test in a single dosage of 10 mg/kg. Only those substances which in this test (10 mg/kg) have shown a parasitaemia reduction of 90% are used for the titration. Suitable dilutions of the test substance can be used to obtain an accurate titration of the activity.
48 hours after the treatment (D+3) blood smears are prepared from all animals using blood from tail veins and are stained with giemsa. […] The difference in the average values of the infection rates of control group (100%) and treated groups is calculated and expressed as a percentage reduction (GI%). The ED50 or ED90 is determined mathematically by means of the JMP programme (nonlinear fit). The ED50 (ED90) in mg/kg is that dose which after single administration reduces the average erythrocyte infection rate by 50% (90%) in comparison to the control group.

In test [2] the test system is Plasmodium falciparum strain NF54. As to the kind of experiment: Growth inhibition of Plasmodium falciparum NF54 (chloroquine-sensitive) in vitro, [G-3H]-hypoxanthin incorporation. It is filed as cell-based. The note with it: read-out: IC50 for P. falciparum NF54. The text has this: (§1) The ratio of the growth inhibition of a strain which is especially resistant to chloroquine and of a strain which is sensitive to chloroquine gives as the "resistance index" a measurement for the absence of a cross-resistance with chloroquine. Since, for all novel compounds the resistance index lies between 0.7 and 2.5, they inhibit the growth of sensitive as well as resistant strains of the malaria pathogen equally effectively. They are accordingly also suitable for the prophylaxis of a malaria disease and also for the treatment of a malaria disease even when chloroquine is ineffective. The good activity against malaria pathogens is also shown in animal experiments. The effective doses measured after oral and subcutaneous administration to mice infected with malaria pathogens are shown in Table 2 hereinafter.
(§2) Test method for the determination of the activity against Plasmodium falciparum in vitro
(§3) The preparations are tested on intraerythrocytary stages of Plasmodium falciparum from asynchronous cultures according to the method of Desjardin et al. (Desjardins, R. E. et al: Quantitative assessment of antimalarial activity in vitro by a semiautomated microdilution technique. Antimicrob. Agents Chemother. 16, 710-718, (1979)).
(§4) The culture medium consists of RPMI 1640 with the addition of 25 mM HEPES, 25 mM NaHCO3, 100 μg/ml neomycin and […] (A^+). Human-A^+ erythrocytes are used as the Plasmodium falciparum host cells. The parasites are maintained at 37° C. in an atmosphere of 3% O2, 4% CO2, 93% N2 and 95% relative humidity.
(§5) In order to determine the activity, the preparations are dissolved in DMSO, pre-diluted in the culture medium to a suitable starting concentration and subsequently titrated-out on to microtitre plates in the 2nd stage over 6-7 steps. After the addition of the parasite culture (0.7% parasitemia in 2.5% erythrocyte suspension) the test plates are incubated under the conditions given above for 72 h. The parasite growth in the different preparation concentrations is determined using [G-^3 H]-hypoxanthin incorporation compared to untreated control cultures on the same test plates. The 50% growth inhibition (IC50) is calculated according to logit regression analysis from the resulting dosage-activity curve.
(§6) The preparations are tested on at least one chloroquine-resistant and one chloroquine-sensitive Plasmodium falciparum strain. Additional sensitive and resistant strains are included for further characterization.

The test system of test [3] is Plasmodium falciparum K1. As to the kind of experiment: Growth inhibition of Plasmodium falciparum K1 (chloroquine-resistant) in vitro, [G-3H]-hypoxanthin incorporation. Type of test: cell-based, Plasmodium falciparum (strain K1). To be noted: for IC50: Plasmodium falciparum, K1, 72 h, read-out: IC50 for P. falciparum K1; for Resistance index: ratio of the IC50 for K1 and the IC50 for NF54.
Text: as §1, §2, §3, §4, §5, §6

Where [4] appears, read: po, single peroral dose of 10 mg/kg, mice, blood smears 48 h after treatment, read-out: Growth inhibition in % after po administration (GI%, percentage reduction of the parasitemia).
Setting [5] is: sc, single subcutaneous dose of 10 mg/kg, mice, blood smears 48 h after treatment, read-out: Growth inhibition in % after sc administration (GI%, percentage reduction of the parasitemia).
Setting [6] is: chloroquine-sensitive strain NF54, 72 h.

By IC50 is commonly meant the point on the concentration scale where inhibition reaches its midpoint. Take `Cl.Cl.Clc1ccc(CN[C@@H]2CC[C@H](Nc3ccnc4cc(Cl)ccc34)C2)cc1` (relative stereo) [Example 68, cis-N1-(7-Chloro-quinolin-4-yl)-N3-(4-chloro-benzyl)-cyclopentane-1,3-diamine dihydrochloride]: the inhibition in vivo at 10 mg/kg turned out to be 99.9% in test [1] (setting [4]) and 99.6% in test [1] (setting [5]). Besides, the IC50 in test [2] (setting [6]) was 0.0059 µg/mL; in test [3], 0.0146 µg/mL. For the same molecule, in test [3], the Resistance index is reported as 2.5.
With `CCN(CC)CCCC(C)Nc1ccnc2cc(Cl)ccc12` (stereo not shown) [Chloroquine diphosphate, reference compound], the inhibition in vivo at 10 mg/kg was determined as 99.9% in test [1] (in Mus musculus, po, 48 h, read-out: Growth inhibition in % after po administration (GI%, percentage reduction of the parasitemia)) and 99.9% in test [1] (in Mus musculus, sc, 48 h, read-out: Growth inhibition in % after sc administration (GI%, percentage reduction of the parasitemia)). For the same molecule, the IC50 was 0.0067 µg/mL in test [2] (NF54, 72 h) and 0.095 µg/mL in test [3]. Further, in test [3], the Resistance index is given as 14.2.
On to `CC(C)(CNc1ccnc2cc(Cl)ccc12)NCc1ccc(Cl)c(Cl)c1` [Example 3, N1-(7-Chloro-quinolin-4-yl)-N2-(3,4-dichloro-benzyl)-2-methyl-propane-1,2-diamine], for which the inhibition in vivo at 10 mg/kg amounted to 96% in test [1] (setting [4]) and 8% in test [1] (setting [5]). Further, the figures for the IC50 in test [2] (setting [6]) and in test [3] were 0.0137 µg/mL (≈ 0.0335 µM) and 0.0183 µg/mL (≈ 0.0448 µM), respectively. For the same molecule, the Resistance index in test [3] is given as 1.3.
For `CC(C)(CNc1ccnc2cc(Cl)ccc12)NCc1cccc(Cl)c1` [Example 4, N1-(7-Chloro-quinolin-4-yl)-N2-(3-chloro-benzyl)-2-methyl-propane-1,2-diamine] the same measures were 68%, 73%, 0.0091 µg/mL (≈ 0.0243 µM), 0.0088 µg/mL (≈ 0.0235 µM) and 1.0.
For `CC(C)(CNc1ccnc2cc(Cl)ccc12)NCc1ccc(Cl)cc1Cl` [Example 5, N1-(7-Chloro-quinolin-4-yl)-N2-(2,4-dichloro-benzyl)-2-methyl-propane-1,2-diamine] the same measures were 83%, 69%, 0.0493 µg/mL (≈ 0.121 µM), 0.0572 µg/mL (≈ 0.14 µM) and 1.2.
Take `CC(C)(CNc1ccnc2cc(Cl)ccc12)NCc1ccc(F)c(Cl)c1` [Example 6, N1-(7-Chloro-quinolin-4-yl)-N2-(3-chloro-4-fluoro-benzyl)-2-methyl-propane-1,2-diamine]: the inhibition in vivo at 10 mg/kg was 99.7% in test [1] (setting [4]) and 95% in test [1] (setting [5]). Besides, the IC50 was 0.0103 µg/mL (≈ 0.0263 µM) in test [2] (setting [6]) and 0.0145 µg/mL (≈ 0.037 µM) in test [3]. For the same molecule, the Resistance index in test [3] stood at 1.4.
For `CC(C)(CNc1ccnc2cc(Cl)ccc12)NCc1ccc(Cl)c(C(F)(F)F)c1` [Example 7, N1-(7-Chloro-quinolin-4-yl)-N2-(4-chloro-3-trifluoromethyl-benzyl)-2-methyl-propane-1,2-diamine], the inhibition in vivo at 10 mg/kg in test [1] (setting [4]) was found to be 96%; in test [1] (setting [5]), 54%. Further, the IC50 is 0.024 µg/mL (≈ 0.0543 µM) in test [2] (setting [6]) and 0.0349 µg/mL (≈ 0.0789 µM) in test [3]. Moreover, in test [3], the Resistance index is given as 1.5.
The like results for `CC(C)(CNc1ccnc2cc(Cl)ccc12)NCc1cccc(C(F)(F)F)c1` [Example 8, N1-(7-Chloro-quinolin-4-yl)-N2-(3-trifluoromethyl-benzyl)-2-methyl-propane-1,2-diamine] were, in that order, 99%, 95%, 0.0161 µg/mL (≈ 0.0395 µM), 0.0189 µg/mL (≈ 0.0463 µM) and 1.2.
Take `CC(C)(CNc1ccnc2cc(Cl)ccc12)NCc1ccc(C(F)(F)F)cc1` [Example 9, N1-(7-Chloro-quinolin-4-yl)-N2-(4-trifluoromethyl-benzyl)-2-methyl-propane-1,2-diamine]: the inhibition in vivo at 10 mg/kg in test [1] (setting [4]) was 66%; in test [1] (setting [5]) it was 74%. Besides, the IC50 is 0.0132 µg/mL (≈ 0.0324 µM) in test [2] (setting [6]) and 0.0167 µg/mL (≈ 0.0409 µM) in test [3]. In addition, the Resistance index in test [3] is recorded as 1.3.
For `CC(C)(CNc1ccnc2cc(Cl)ccc12)NCc1cc(C(F)(F)F)cc(C(F)(F)F)c1` [Example 10, N1-(7-Chloro-quinolin-4-yl)-N2-(3,5-bis-trifluoromethyl-benzyl)-2-methyl-propane-1,2-diamine] the same measures were 99.2%, 99.3%, 0.0517 µg/mL (≈ 0.109 µM), 0.0504 µg/mL (≈ 0.106 µM) and 1.0.
Consider `CC(C)(CNc1ccnc2cc(Cl)ccc12)NCc1ccncc1` [Example 11, N1-(7-Chloro-quinolin-4-yl)-N2-(pyridin-4-yl-methyl)-2-methyl-propane-1,2-diamine], for which the inhibition in vivo at 10 mg/kg in test [1] (setting [4]) was determined as 99.9%; in test [1] (setting [5]), 99.8%. Besides, the IC50 in test [2] (setting [6]) stood at 0.0293 µg/mL (≈ 0.086 µM); in test [3], 0.048 µg/mL (≈ 0.141 µM). Besides, the Resistance index in test [3] worked out at 1.6.
For `CC(C)(CNc1ccnc2cc(Cl)ccc12)NCc1c(Cl)cccc1Cl` [Example 12, N1-(7-Chloro-quinolin-4-yl)-N2-(2,6-dichloro-benzyl)-2-methyl-propane-1,2-diamine] the same measures were 98%, 4%, 0.0847 µg/mL (≈ 0.207 µM), 0.197 µg/mL (≈ 0.482 µM) and 2.3.
The like results for `Cl.Cl.Clc1ccc2c(N[C@H]3CC[C@@H](NCCc4ccccc4)CC3)ccnc2c1` [Example 13, cis-N1-(7-Chloro-quinolin-4-yl)-N4-phenethyl-cyclohexane-1,4-diamine dihydrochloride] were, in that order, 99.9%, 99.9%, 0.0027 µg/mL, 0.0161 µg/mL and 6.0.
The like results for `COc1cc(OC)c(CN[C@H]2CC[C@@H](Nc3ccnc4cc(Cl)ccc34)CC2)c(OC)c1.Cl.Cl` [Example 14, cis-N1-(7-Chloro-quinolin-4-yl)-N4-(2,4,6-trimethoxy-benzyl)-cyclohexane-1,4-diamine dihydrochloride] were, in that order, 100%, 100%, 0.0048 µg/mL, 0.0284 µg/mL and 5.9.
With `COc1cc(CN[C@H]2CCCC[C@@H]2Nc2ccnc3cc(Cl)ccc23)cc(OC)c1OC.Cl.Cl` [Example 65, (1S,2S)-N1-(7-Chloro-quinolin-4-yl)-N2-(3,4,5-trimethoxy-benzyl)-cyclohexane-1,2-diamine dihydrochloride], the half-maximal inhibitory concentration (IC50) was found to be 0.0099 µg/mL in test [2] (setting [6]) and 0.0253 µg/mL in test [3]. In addition, in test [3], the Resistance index turned out to be 2.6.
